This is an account of results in patent publication US7977304B2, “FK 228 derivates as HDAC inhibitors” (University of Southampton Highfield, priority 2005, dated 2011).

Holding throughout (format): cell-based
The subject of assay [1] is MCF7 human breast cancer cells. Description: Activity Assay 1: CyQuant cell proliferation assay, MCF7. As for the experimental part:
(§1) Method; Cell proliferation assays were performed using the CyQuant™ assay system (Molecular Probes, Inc. USA) according to the manufacturer's instructions. This system utilises a proprietary green fluorescent dye which undergoes strong fluorescent enhancement on binding cellular nucleic acids, to allow determination of cell number with a linear detection range between 50 to 250,000 cells. Estrogen receptor positive MCF7 breast cancer cells (ECAAC) and NHDF cells (Cambrex, UK) were plated in 96 well plates, at a density of 1000 cells in 100 μl of cell culture medium per well. Compounds were added a minimum of 5 hours later, in serial dilutions in cell culture medium, in 100 μl volumes at 2× final concentration. Six days later cell culture medium was removed by inversion of the plate onto blotting paper and cells were gently washed once with 200 μl PBS. […] Fluorescence was then measured for each well using a Cytofluor II Fluoresence Multiwell Plate Reader and CytoFluor II software with filters at 480 nm for excitation and 520 nm for emission maxima. Cell proliferation was determined for mean values of duplicate samples as percentages relative to untreated cell samples (=100%). […]
(§2) MCF7 and NHDF were incubated with the indicated concentrations of compounds. After 6 days cell growth relative to untreated cells (=100%) was determined using the CyQuant™ assay. […]

The subject of assay [2] is MCF7 breast cancer cells. Description: Activity Assay 6: CyQuant cell growth inhibition, MCF7. The following applies: Homo sapiens, 144 h, MCF7, 6 days. Here is the method: We analysed the ability of compounds to inhibit the in vitro growth of human cancer cells. Cell proliferation assays were performed using the CyQuant™ assay system (Molecular Probes, Inc. USA) according to the manufacturer's instructions. MCF7 breast, A2780 ovarian and PC3 and LNCAP prostate cancer cells were plated in 96 well plates, at a density of 1000 cells for MCF7 cells or 5000 cells for M780/PC3/LNCAP cells, in 100 μl of cell culture medium per well. Compounds were added a minimum of 5 hours later, in serial dilutions in cell culture medium, in 100 μl volumes at 2× final concentration. Cell culture medium was removed after 4 (A2780, PC3 or LNCAP cells) or 6 days (MCF7 cells) by inversion of the plate onto blotting paper and cells were gently washed once with 200 μl PBS. Plates were frozen immediately for a minimum of one hour at −80° C. and then thawed. 200 μl of 1× CyQuant cell lysis buffer supplemented with dye, made according to the manufacturer's instruction, was added immediately to each well and incubated at room temperature for 3-5 minutes. Fluorescence was then measured for each well using a Cytofluor II Fluoresence Multiwell Plate Reader and CytoFluor II software with filters at 480 nm for excitation and 520 nm for emission maxima. Cell proliferation was determined for mean values of duplicate samples as percentages relative to untreated cell samples (=100%). Growth inhibition curves were used to derive IC50 values.

In assay [3] the test system is normal human dermal fibroblasts (NHDF). Kind of assay: Activity Assay 1: CyQuant cell proliferation assay, NHDF. The settings on record: 144 h, read-out: mean IC50 for growth inhibition (±SD), NHDF. Here is the method:
as §1, §2

As for `CC(C)[C@H]1NC(=O)[C@H]2CSSCC/C=C/[C@H](CC(=O)N[C@H](C)C(=O)N2)OC(=O)CNC1=O` [Compound 9A, (E)-(1S,7R,10S,21R)-7-isopropyl-21-methyl-2-oxa-12,13-dithia-5,8,20,23-tetraaza-bicyclo[8.7.6]tricos-16-ene-3,6,9,19,22-pentaone], the half-inhibitory concentration (IC50) in assay [1] (Homo sapiens, 144 h, MCF7, 6 days, CyQuant, mean ± SD of multiple experiments, read-out: mean IC50 for growth inhibition (±SD), MCF7) was 121 ± 52 nM; in assay [2], 36.6 nM; in assay [3], 420 ± 42 nM. Also, the “potency of cancer cell growth inhibition compared with SAHA” value in assay [1] (MCF7, p=0.003, Student's t-test) is recorded as “significantly more potent than SAHA”.
